The test system of the assay is P. falciparum 3D7 growth, pLDH absorbance. Briefly: P. falciparum 3D7 growth inhibition, dose response, strain 3D7 (AID 2305).

As a reminder, the IC50 is the concentration needed to halve the response being measured. The low end stands for inhibition by little substance, the high end for a need for much substance.

The structures appear in SMILES notation.

With `COc1cccc(CNC[C@@H](O)[C@H](Cc2ccccc2)NC(=O)c2cc(OC(C)C)cc(N3CCCCS3(=O)=O)c2)c1`, the half-inhibitory concentration (IC50) came out at 730 nM.
Next, `COc1cc(SC)ccc1C(=O)N1CC(C)CC(C)C1` (centres undefined): 350 nM.
`c1cc(OCCN2CCCC2)ccc1CNC1CCN(CC2CCCCC2)CC1` displayed an IC50 of 840 nM.
`Cc1ccc(-c2nnc(-c3ccc(C(=O)NC4CCN(Cc5ccc(C#N)cc5)CC4)cc3)o2)cc1Br` yielded an IC50 of 850 nM.
Next, `O=C(Nc1cccc(CN2CCCN(Cc3cccc(Cl)c3)CC2)c1)c1ccc(Br)cc1`: 940 nM.
Next, `O=C(N[C@H]1CCN(Cc2ccc(OCCCN3CCCCC3)cc2)C1)c1cc(Cl)cc(Cl)c1`: 620 nM; `CS(=O)(=O)NCCCNCc1ccc(-c2ccc(-c3nc4ccc(C(F)(F)F)cc4[nH]3)cc2)cc1`: 460 nM; `CCCC(=O)Nc1ccc(OCCCN(Cc2cccc(C(F)(F)F)c2)c2ccc(C#N)c(C(F)(F)F)c2)cc1`: 1090 nM.
To `Cc1ccc(CCOCCCCCNCC(O)c2cc(Cl)c(N)c(Cl)c2)cc1` (centres undefined) belongs 950 nM; to `Cc1cc(O)c(CNC2CCCCC2)cc1C`, 1050 nM; to `Cc1[nH]c(C)c(-c2ccc(OCc3ccc(F)cc3)nc2)c(=O)c1Br`, 200 nM.
As to `CN1CCC(C(=O)Nc2cccc(-c3ccc(-c4nc5ccc(C(F)(F)F)cc5[nH]4)s3)c2)CC1`, the half-inhibitory concentration (IC50) was 720 nM. Against the preceding molecule, the IC50 is about 3.6-fold higher.
The molecule `CC(=O)Nc1cccc(C(=O)Nc2cccc(-c3ccc(-c4nc5ccc(C(F)(F)F)cc5[nH]4)s3)c2)c1` registered a 50% inhibitory concentration (IC50) of 650 nM.
For `Clc1cc(Cl)c2c(c1)C(NCCCNc1nc3ccccc3[nH]1)CCO2` (centres undefined), the half-maximal inhibitory concentration (IC50) came to 330 nM.
To `O=C(Nc1ccc(C(=O)Oc2cccc3ccccc23)cc1)N[C@@H](Cc1ccc(O)cc1)C(=O)NC1CCN(Cc2ccc(O)cc2)C1` (some centres undefined) belongs 910 nM; to `C=CCOC(=O)N1CCC(CNCc2cccc(-c3ccc(-c4nc5ccccc5[nH]4)s3)c2)C1` (centres undefined), 270 nM.
To `O=C(O)c1cccnc1Sc1ccc(Cl)cc1` belongs 830 nM; to `O=C(NCc1cccs1)[C@H](Cc1ccccc1)Nc1ccnc(NCCc2ccccc2)n1`, 1050 nM; to `COc1cccc(Nc2nc(C)cc(NC3CCCC3)n2)c1`, 1110 nM.
To `COc1cc(C(=O)NCCCN2CCN(c3cccc(Cl)c3)CC2)ccc1-c1nc2cc(Cl)c(F)cc2[nH]1` belongs 1020 nM.
On to `Cc1ccc(C(=O)Nc2ccc(Nc3ccnc4cc(-c5ccncc5)ccc34)cc2O)cc1`, for which the IC50 was found to be 930 nM.
Next, `CN(C(=O)Cc1ccc(Cl)c(Cl)c1)C1CCN(CCCCCNC(=O)/C=C/c2ccc(Cl)c(Cl)c2)CC1`: 740 nM; `Cc1cc(NC(=O)Nc2ccc3nc(C)oc3c2)c2cc(Cl)ccc2n1`: 1120 nM; `Cc1[nH]c(C)c(-c2ccc(-c3ccc(F)cc3)nc2)c(=O)c1Br`: 250 nM.
In the case of `O=C(CSc1nccn1C1CCCC1)Nc1cc(C(F)(F)F)ccc1Cl`, the IC50 was 380 nM.
As for `COc1ccc2ncc(F)c(CCN3CCC(NCc4ccc5c(c4)CCO5)CC3)c2n1`, the IC50 is 680 nM.
Next, `Cc1nc2ccccc2n1C1C[C@H]2CC[C@@H](C1)N2Cc1nccn1-c1ccccc1` (some centres undefined): 370 nM; `COc1ccc2nccc([C@@H](O)CN3CCC(NC(=O)C(=Cc4ccc(C#N)cc4)c4ccc(-c5ccccc5)cc4)CC3)c2c1`: 740 nM; `CC(C)(C)CC(C)(C)c1ccc(O)c(CNC2CCCCC2)c1`: 60 nM.
Next, `CC(=O)c1c[nH]c2ccc(/C=C/C(=O)NC3CCC(CCN4CCc5ccc(C#N)cc5CC4)CC3)cc12` (centres undefined): 500 nM; `CCCCCN1CCCC(CNS(=O)(=O)c2ccc(C(=O)Nc3ccc(C(F)(F)F)cc3)cc2)C1` (centres undefined): 920 nM; `COc1ccc2nccc([C@@H](O)CN3CCC(NC(=O)/C=C/c4c[nH]c5c(C)cccc45)CC3)c2c1`: 130 nM.
Next, `CN(C)c1ccc2c(c1)Sc1cc(N(C)C)ccc1N2C(=O)c1cccc(C(=O)O)c1`: 180 nM.
`CC[C@H](C)CNC(=O)c1cncc(-c2ccc(CNC3Cc4ccccc4C3)cc2)c1` had an IC50 of 830 nM.
